From patent US6420121B1, “Prevention of cell migration initiation with CMV US28 receptor antagonists” (Oregon Health Sciences University, priority 1998, dated 2002)
Entries after “also recorded” stand apart in the source; their conditions may differ.

Experiments:
HCMV infected SMCs = test: HCMV-induced SMC migration assay (migration chamber); type: cell-based; conditions: for inhibition of HCMV-induced SMC migration: SMCs infected with HCMV, FIG. 7 and FIG. 9
Text: The present invention provides an assay for determining therapeutic activity of US28 receptor antagonists, comprising (a) obtaining and isolating smooth muscle cells into a first chamber of a migration device, wherein the first migration chamber comprises growth media chambers and is defined by a first side of a membrane and chamber walls, and wherein the migration device comprises a second chamber defined by the second side of the membrane and having an enclosed space; (b) infecting the smooth muscle cells with human cytomegalovirus (HCVM) containing a gene encoding the US28 receptor; (c) adding a candidate therapeutic agent to the first chamber; and (d) determining the amount of cellular migration into the second chamber, whereby inhibition of cellular migration of infected smooth muscle cells indicates therapeutic activity. Preferably, the smooth muscle cells are isolated from pulmonary arteries. Preferably, the membrane has a pore size of from about 2 to about 10 microns. Most preferably, the membrane pore size is about 3 microns. Preferably the amount of cellular migration is determined by an assay for counting the number of smooth muscle cells in the second chamber wherein the assay for counting the number of smooth muscle cells is selected from the group consisting of microscopic cell counting per unit area, radiolabeling the smooth muscle cells and counting radioactivity in the second chamber, attaching a fluorescent probe to the smooth muscle cells and measuring fluorescence within the second chamber, and combinations thereof.
SMCs are cultured in the upper chamber and infected with HCMV (preferably at or near MOI11). Only cells that are infected will migrate through a filter (preferably 3 micron) to the lower chamber. The cells in the lower chamber are counted by microscopy or labeled with a radioactive or fluorescent label.
The present invention provides an assay for determining therapeutic activity of US28 receptor antagonists, comprising (a) obtaining and isolating smooth muscle cells into a first chamber of a migration device, wherein the first migration chamber comprises growth media chambers and is defined by a first side of a membrane and chamber walls, and wherein the migration device comprises a second chamber defined by the second side of the membrane and having an enclosed space; (b) infecting the smooth muscle cells with human cytomegalovirus (HCVM) containing a gene encoding the US28 receptor; (c) adding a candidate therapeutic agent to the first chamber; and (d) determining the amount of cellular migration into the second chamber, whereby inhibition of cellular migration of infected smooth muscle cells indicates therapeutic activity. Preferably, the smooth muscle cells are isolated from pulmonary arteries. […]

[1] = test system: US28 transfected smooth muscle cell; test: US28 SMC migration with PTK pathway inhibitors (FIG. 15); type: cell-based

| Molecule | inhibition of HCMV-induced SMC migration (HCMV infected SMCs) | inhibition of US28 SMC migration [1] | other results |
| --- | --- | --- | --- |
| C[C@@H]1C[C@@H]([C@H](O)CC2CC(=O)NC(=O)C2)C(=O)[C@@H](C)C1 [cyclohexamide] | blocked |  |  |
| O=C(O)P(=O)(O)O [foscarnet] | did not inhibit SMC migration; also recorded: did not inhibit migration of infected smooth muscle cells |  |  |
| CO[C@H]1[C@@H](OC)C[C@H](C)[C@@H](OC)C2=CC(=O)C=C(NC(=O)/C(C)=C/C=C\[C@H](OC)[C@@H](OC(N)=O)/C(C)=C/[C@@H]1C)C2=O [herbimycin A, Herbimycin A] |  | effective in inhibiting US28 transfected smooth muscle cell migration |  |
| PDGF |  |  | induction of cell migration in SMCs (HCMV infected SMCs; SMCs treated with PDGF, compared with HCMV infection, FIG. 7): did not cause cell migration in SMCs to nearly the extent as HCMV infection |
| Pertussis toxin |  | had no effect |  |
| RANTES: C-C chemokine, US28 receptor ligand (protein, UniProt P13501 24-91, looked up) C-C motif chemokine 5: SPYSSDTTPCCFAYIARPLPRAHIKEYFYTSGKCSNPAVVFVTRKNRQVCANPEKKWVREYINSLEMS |  |  | SMC migration on addition of chemokine (HCMV infected SMCs; HCMV-GFP-infected SMCs, FIG. 12): increased SMC migration in a dose-dependent manner |
